Data as given in the NIST ThermoML archive (doi:10.1016/j.fluid.2019.05.003).

Test: xn = mol fraction of the nth substance listed
Conditions: 101 kPa, Liquid; for viscosity: Falling or rolling sphere viscometry; for mass density: Vibrating tube method

OCC[n+]1ccccc1.[Br-] [1-(2-hydroxyethyl)pyridinium bromide] + O
Conditions | mass density [kg/m3] | viscosity [mPa·s]
298.15 K, x1 = 0.022 | 1071.4 | 1.138
298.15 K, x1 = 0.045 | 1131.4 | 1.415
298.15 K, x1 = 0.066 | 1177.3 | 1.761
298.15 K, x1 = 0.085 | 1211 | 2.174
298.15 K, x1 = 0.114 | 1256.4 | 2.918
298.15 K, x1 = 0.152 | 1296.4 | 4.134
298.15 K, x1 = 0.195 | 1334.4 | 6.391
298.15 K, x1 = 0.226 | 1356.7 | 8.964
298.15 K, x1 = 0.261 | 1377.5 | 11.93
303.15 K, x1 = 0.022 | 1069.5 | 1.04
303.15 K, x1 = 0.045 | 1129.2 | 1.268
303.15 K, x1 = 0.066 | 1174.8 | 1.576
303.15 K, x1 = 0.085 | 1208.3 | 1.937
303.15 K, x1 = 0.114 | 1251.9 | 2.577
303.15 K, x1 = 0.152 | 1293.5 | 3.62
303.15 K, x1 = 0.195 | 1331.4 | 5.528
303.15 K, x1 = 0.226 | 1353.6 | 7.799
303.15 K, x1 = 0.261 | 1374.3 | 10.25
308.15 K, x1 = 0.022 | 1067.5 | 0.947
308.15 K, x1 = 0.045 | 1126.8 | 1.148
308.15 K, x1 = 0.066 | 1172.2 | 1.424
308.15 K, x1 = 0.085 | 1205.7 | 1.744
308.15 K, x1 = 0.114 | 1247.7 | 2.309
308.15 K, x1 = 0.152 | 1290.5 | 3.233
308.15 K, x1 = 0.195 | 1328.4 | 4.908
308.15 K, x1 = 0.226 | 1350.4 | 6.784
308.15 K, x1 = 0.261 | 1371.2 | 8.888
313.15 K, x1 = 0.022 | 1065.2 | 0.867
313.15 K, x1 = 0.045 | 1124.3 | 1.046
313.15 K, x1 = 0.066 | 1169.6 | 1.294
313.15 K, x1 = 0.085 | 1202.9 | 1.581
313.15 K, x1 = 0.114 | 1244.9 | 2.082
313.15 K, x1 = 0.152 | 1287.5 | 2.894
313.15 K, x1 = 0.195 | 1325.3 | 4.33
313.15 K, x1 = 0.226 | 1347.3 | 5.9
313.15 K, x1 = 0.261 | 1368 | 7.704
318.15 K, x1 = 0.022 | 1062.7 | 0.8
318.15 K, x1 = 0.045 | 1121.8 | 0.96
318.15 K, x1 = 0.066 | 1166.9 | 1.184
318.15 K, x1 = 0.085 | 1200.1 | 1.44
318.15 K, x1 = 0.114 | 1241.9 | 1.887
318.15 K, x1 = 0.152 | 1284.5 | 2.604
318.15 K, x1 = 0.195 | 1322.2 | 3.868
318.15 K, x1 = 0.226 | 1344.2 | 5.148
318.15 K, x1 = 0.261 | 1364.8 | 6.721
323.15 K, x1 = 0.022 | – | 0.741
323.15 K, x1 = 0.045 | – | 0.886
323.15 K, x1 = 0.066 | – | 1.086
323.15 K, x1 = 0.085 | – | 1.32
323.15 K, x1 = 0.114 | – | 1.721
323.15 K, x1 = 0.152 | – | 2.36
323.15 K, x1 = 0.195 | – | 3.478
323.15 K, x1 = 0.226 | – | 4.527
323.15 K, x1 = 0.261 | – | 5.895
